Measured values: a melting point compilation (Tetko et al.; mined from patent text by program, amines drawn as free bases though some values may be those of a salt)

Row | melting point | Compound
1 | 150 to 153 °C | CC(CS)C(=O)N(CC(=O)O)Cc1ccco1 (stereo not drawn)
2 | 94 to 95 °C | Cc1ccc(C(=O)COc2cc(C)cc(C)c2C)cc1
3 | 96 to 98 °C | COC(=O)COc1ccc(Cn2c(-c3ccc(OC4CCCC4)cc3)c(C)c3cc(OCc4ccccc4)ccc32)cc1
4 | 162 to 163 °C | CC(C)CC(=O)Nc1ccc2oc3c(c2c1)CCCCC3
5 | 152 to 153 °C | CCCCNc1cccc2c1C(=O)c1cccc(NCCCC)c1C2=O
6 | 299 to 303 °C | CC(=NNc1ccc(-c2n[nH]c(=O)cc2C)cc1)c1ccc(O)cc1O
7 | 225 °C | CC(=O)Nc1cccc(OCc2cc([N+](=O)[O-])ccc2C(=O)O)c1
8 | 200 to 202 °C | COc1ccc(C=Cc2ccc(CO)cc2)cc1
9 | 170 to 171 °C | CCOC(=O)c1c(C)cc(NC(C)=O)c(C(=O)O)c1C
10 | 140 to 143 °C | COC(=O)c1cc(C)cc(OC)c1C1=CC(=O)c2c(O)cccc2C1=O
11 | 294 to 296 °C | c1cn(-c2cc(-n3cnc4cc(-c5ccoc5)ccc43)ncn2)cn1
12 | 242 to 244 °C | NS(=O)(=O)c1ccc(-n2nc(C(F)F)cc2-c2nc3ccc(Cl)cc3s2)cc1
13 | 209 to 210 °C | CC(C)c1c(S(=O)(=O)c2ccc(O)cc2)cnn1C
14 | 121 to 123 °C | NC(=O)c1c(F)ccc(F)c1N
15 | 220 °C | COc1cc(C)nc(NC(N)=S)n1
16 | 73 to 75 °C | O[C@H]1c2ccc(OCc3ccccc3)cc2OC[C@H]1Oc1cccnc1 (relative stereo)
17 | 44 to 45 °C | COC(=O)c1ccc(C(C)(C)CO)cc1
18 | 41 to 43 °C | COC1=C(OC)C(=O)OC1=O
19 | 257 to 258 °C | O=C(O)c1ccc(-c2nc(-c3ccc(Cl)cc3)no2)c([N+](=O)[O-])c1
20 | 235 to 236 °C | Cc1c2cnc3c([N+](=O)[O-])cccc3c2nn1C
21 | 85 to 87 °C | O=C1CCSc2cc(-c3ccccc3)ccc21
22 | 128 to 131 °C | CC1=C(C(=O)CS(=O)(=O)NC(C)C)[C@@H](c2cccc([N+](=O)[O-])c2)C(C(=O)O[C@@H](C)c2ccccc2)=C(C)N1
23 | 146 to 147 °C | C#CCN1CCNC1=C[N+](=O)[O-]
24 | 224 to 226 °C | C=C1N=C(c2ccccc2F)c2cc(Cl)ccc2C(=O)C1N(C)C (stereo not drawn)
25 | 152 °C | O=[N+]([O-])c1cc(C(F)(F)F)ccc1NCCN1CCN(C(c2ccccc2)c2ccccc2)CC1

Row | melting point | Compound
26 | 124 to 125 °C | C=C(C)Cc1c(C)c(NC(=O)CC(C)(C)C)c(C)c(Cc2ccc(C(C)C)cc2)c1O
27 | 104 to 106 °C | CC1(C)C(N)C(C)(C)S1(=O)=O
28 | 62 to 64 °C | CCC1(c2cccc(OC)c2)CCCCN(C)C1=O (stereo not drawn)
29 | 188 to 192 °C | Nc1cc(Oc2ccc(NC(=O)Nc3ccc(-c4ccccn4)c(C(F)(F)F)c3)cc2)ncn1
30 | 112 to 115 °C | COc1ccc2cc([C@H](C)C(=O)OCCS(=O)CCOC(=O)OC(C)O[N+](=O)[O-])ccc2c1 (stereo partly drawn)
31 | 166 to 169 °C | CC1(CO)Cc2nnc(-c3ccc(-c4ccccc4)cc3Cl)n2CCS1 (stereo not drawn)
32 | 144 to 145 °C | CCn1c(C)nc2cc(C(F)(F)F)cc(N)c21
33 | 47 to 54 °C | N#CCC(=O)C(F)(F)C(F)(F)F
34 | 150 to 152 °C | COCCOCn1cc(C(=O)NCc2ccc(Cl)cc2)c(=O)c2cc(CN3CCOCC3)ccc21
35 | 198 to 203 °C | Cn1ccc2cc(N3Cc4c(N)cccc4C3=O)ccc21
36 | 207 to 210 °C | COc1ccc(CNc2cc3c(Nc4ccc(Cl)c(Br)c4)ncnc3cn2)cc1
37 | 137 °C | CC(=O)NS(=O)(=O)c1ccc2ccc(Oc3c(Cl)cc(C(F)(F)F)cc3Cl)cc2c1
38 | 166 to 167 °C | O=C(O)CCc1cn(Cc2cccc(C(=O)NCCc3ccccn3)c2)nc1-c1ccccc1
39 | 252 to 254 °C | COC1C(O)C(CO)OC1n1ccc(N)nc1=O (stereo not drawn)
40 | 226 °C | CC(=O)OC1CSC(Oc2ccc(-c3ccnc(F)c3)nc2Cl)C(OC(C)=O)C1OC(C)=O (stereo not drawn)
41 | 137 to 138 °C | COCCOCCOCCOc1cc(OC)c(-c2cccs2)cc1/C=C/C(=O)c1ccc(C(=O)O)cc1
42 | 113 to 116 °C | CCOC(=O)C1=Cc2cc(C=NO)ccc2OC1C(F)(F)F (stereo not drawn)
43 | 336 to 338 °C | COc1ccccc1N1CC(=O)Nc2c(C(N)=O)nc(-c3cccc(O)c3)nc21
44 | 196 °C | CC1(Cl)C=CC2=C(c3cccc(CCCC(=O)O)c3)C(CC(=O)Nc3ccc(F)cc3C(F)(F)F)C(=O)OC2=C1 (stereo not drawn)
45 | 59 to 61 °C | CCSCc1c(CCN(C)C)[nH]c2ccccc12
46 | 262 to 264 °C | Cc1ccc(NC(=O)c2c(Cl)cccc2Cl)c2nccc(N3CCN(C)C3=O)c12
47 | 244 °C | CS(=O)(=O)Nc1cc2c(c(C(=O)O)c1)NCCC2
48 | 169 °C | COc1cc(NC(=O)OC(C)(C)C)c(NC(=O)CC(=O)c2cccc(C#N)c2)cc1C#Cc1ccccc1
49 | 117 to 119 °C | Cc1cnc(Cl)c(C(=O)N(C)C)c1
50 | 106 to 108 °C | Cc1ccccc1OCc1ccccc1I

Row | melting point | Compound
51 | 133 °C | c1ccc2c(c1)OCC(CN1CCC(CNc3nc4ccccc4s3)CC1)O2 (stereo not drawn)
52 | 150 to 152 °C | O=C1OC(c2ccccc2)CC(O)=C1SCc1ccccc1 (stereo not drawn)
53 | 60 to 64 °C | Nc1ccc(CNC(=O)OCc2ccccc2)cc1
54 | 219 to 222 °C | CSc1ccc(C(=O)Nc2ccccc2)cc1[N+](=O)[O-]
55 | 176 to 178 °C | CCCCNC(=O)c1ccccc1CN1C(=O)C2(COc3cc4c(cc32)CCO4)c2ccccc21 (stereo not drawn)
56 | 197 °C | CCNC(=O)NCC1=C(n2ccccc2=O)c2cc([N+](=O)[O-])ccc2OC1(C)C
57 | 181 to 183 °C | Cc1ccc(CN2CCC(c3cc(-c4ccc(Cl)cc4)[nH]n3)CC2)cc1
58 | 80 to 90 °C | CCCCCCC(C(=O)O)n1ccc2cc(-c3cccc(OC)c3C(=O)O)ccc21 (stereo not drawn)
59 | 120 °C | Cc1c(CNc2cc(CO)cc(CO)c2)nnn1Cc1ccc(Cl)c(Cl)c1
60 | 272 to 275 °C | Cc1sc(C)c2c(=O)n3cc(C(N)=O)ccc3nc12
61 | 70 to 74 °C | CCOC(=O)/C=C(C)/C(F)=C/C=C(\C)C=O
62 | 228 to 230 °C | O=C(NC1=NN(c2ccc(C(=O)C(F)(F)F)cc2)CC1)C(F)(F)F
63 | 238 °C | Cc1cc(-c2cc(C(F)F)n3ncc(C(=O)O)c3n2)ccc1Cl
64 | 153 to 156 °C | Cc1nc(N2CCN(Cc3ccccc3C(=O)O)C2=O)sc1C(=O)NCc1ccccc1
65 | 118 to 121 °C | COc1ccc(F)cc1C(C)(C)CC(O)(Cn1cnc(=O)c2ccccc21)C(F)(F)F (stereo not drawn)
66 | 131 to 132 °C | c1cn(-c2ccnc(-n3ccnc3)n2)cn1
67 | 88 to 90 °C | Cc1noc(C)c1C(C)(O)c1ccoc1 (stereo not drawn)
68 | 105 to 108 °C | COc1ccc2c(-c3ccccc3F)noc2c1C
69 | 100 to 101 °C | O=C1NCC(Cc2ccccc2Oc2ccccc2)O1 (stereo not drawn)
70 | 214 to 215 °C | CCOC(=O)n1c(C(=O)c2cncnc2)c(NC(C)=O)c2ccc(Cl)cc21
71 | 82 to 83 °C | CCn1c(COC(=O)NC(=O)c2ccc(Cl)cc2)nc(C(C)C)c1Sc1cc(Cl)cc(Cl)c1
72 | 90 °C | CCN(CC)CCCN1C(=O)NC(Cc2c[nH]c3ccccc23)C1=O (stereo not drawn)
73 | 77 to 78 °C | COc1ccc(CNc2cc(OC)c(OC)c(OC)c2)cc1
74 | 69.5 °C | Cc1cccc(C)c1NC(=O)CCNCCNC(C)C
75 | 171 to 173 °C | Nc1ncnc2c1c(C#CCO)nn2Cc1oc2ccccc2c(=O)c1-c1ccccc1

Row | melting point | Compound
76 | 72.5 to 74 °C | CNS(=O)(=O)Cc1ccccc1Br
77 | 220 to 221 °C | O=C(O)c1cc2cc(-c3ccccc3)ccc2o1
78 | 95 to 96 °C | CC(=O)CSc1nc2ccccc2cc1-c1ccc(F)cc1
79 | 131 to 134 °C | O=C(O)c1cc2n(c1)CCCC2
80 | 194 to 195 °C | O=C(O)c1[nH]c(-c2cccs2)cc1-c1ccc(F)cc1
81 | 60 °C | COc1ccc2[nH]c(C(F)(F)F)cc2c1
82 | 157 to 159 °C | Cc1nn(C2CCCC2O)c(N)c1C#N (stereo not drawn)
83 | 289 °C | COc1cc(S(N)(=O)=O)cnc1N=Nc1cc(OC(C)C)c2ccccc2c1O
84 | 209 to 210 °C | CCOC(=O)c1cnc2n(c1=O)C(C)CCC2=NNC(=O)c1ccccc1 (stereo not drawn)
85 | 97 to 98 °C | COC(=O)c1ccc(Oc2cc(-n3nc(C)n(C(F)F)c3=O)c(F)cc2Cl)cc1
86 | 186 to 187 °C | NC(=O)c1cc(F)cc(-c2cccc3cc(Cc4cc(F)cc(Cl)c4)sc23)c1
87 | 243 to 244 °C | Cc1cc(-c2nnc3c4ccccc4c(OCc4ccn(C)n4)nn23)no1
88 | 178 to 180 °C | CCOC1(OC)CC(C)=C(CCc2cccc(OC)c2)C=C1OC (stereo not drawn)
89 | 148 to 152 °C | CN1C(=O)C=C(c2ccccc2)C1(C)O (stereo not drawn)
90 | 152 to 154 °C | CC(=O)NC[C@@H]1CCCc2cc(S(=O)(=O)c3ccccc3)cc(F)c21
91 | 133 to 135 °C | Cc1noc(NS(=O)(=O)c2ccc(-c3ccccc3)cc2)c1Br
92 | 114 to 116 °C | Cn1nc(C(F)(F)F)c(CS(=O)(=O)C2=NOC(C)(CCl)C2)c1Cl (stereo not drawn)
93 | 34 to 36 °C | O=NSC1(C2OCCCO2)CCCCC1
94 | 129 to 131 °C | CC(=O)O[C@H]1[C@H](OC(C)=O)[C@@H](CCl)OC[C@@H]1OC(C)=O
95 | 152 to 153 °C | CCOC(=O)C1(F)C(=O)NC(=O)NC1O/N=C\c1ccco1 (stereo not drawn)
96 | 57.5 to 61.5 °C | C=C(C)C(=O)OCCNC(=O)Oc1cccc(OC(=O)c2ccccc2)c1
97 | 218 °C | COc1cc2[nH]cc(-c3cc4cc(F)cnc4n3S(=O)(=O)c3ccc(C)cc3)c2cc1OC
98 | 105 to 107 °C | CCn1nc(Cl)c(CS(=O)(=O)C2=NOC(C)(C)C2)c1Cl
99 | 80 to 82 °C | CCOC(=O)C(=O)Nc1cc(C#N)c(Cl)cc1[N+](=O)[O-]
100 | 228 to 230 °C | CCc1nc2c(N)nc(C)c(C)c2n1CCCC(N)=O

Row | Compound | melting point
101 | ClC1=NC(Cl)(Cl)N=C1Cl | 85 to 87 °C
102 | CN(C)C=C1N=C(c2ccccc2Cl)c2cc(I)ccc2N(C)C1=O | 182 to 184 °C
103 | CNC(=O)N1N=C(c2ccc([N+](=O)[O-])cc2)c2cc(Cl)c(Cl)cc2CC1C (stereo not drawn) | 221 to 223 °C
